Data: patent EP2282358A1, “Host material for light-emitting devices” (Solvay SA, priority 2009, dated 2011)
Like-named read-outs stand apart in the source and are kept apart here.

Assays:
[1] = Solubility tests in organic solvents; assay type: physicochemical; settings: for solubilities toward chlorobenzene and toluene: result in words
[2] = HOMO and LUMO measurement (cyclic voltammetry and optical energy gap); assay type: physicochemical; settings: for HOMO: estimated from the LUMO level and the optical energy gap (UV-visible absorption onset); for LUMO: from peak potential of 1st reduction wave, cyclic voltammetry in anhydrous tetrahydrofuran, ferrocene internal standard
Procedure: The LUMO (lowest unoccupied molecular orbital) levels are estimated from cyclic voltammetry. Voltammetric measurements are performed using a PC-controlled Autolab PGSTAT128N electrochemical workstation coupled with a 663 VA Stand measure unit. Cyclic voltammograms are recorded at room temperature under an argon atmosphere in anhydrous tetrahydrofuran using 0.1 M tetrabutylammonium hexafluorophosphate (Fluka electrochemical grade) as supporting electrolyte. The working electrode is a glassy carbon disk and the counter electrode is a platinum wire or a glassy carbon rod. A silver/silver chloride electrode filled with a methanolic saturated KCl solution or a platinum wire pseudo-reference has been used as reference electrode. The sample solutions (0.5 mM) are outgassed with argon for 10 minutes before measurement. Measurements are performed with a sweep rate fixed to 0.1 V/s. Ferrocene is used as internal standard.
The LUMO level is estimated from the peak potential of the 1st observed reduction wave (E1 reduct.) using the following equation: ELUMO -(-4.8) = -[E1 reduct-EOX ½(Fc/(Fc)^+)] [formula] where EHOMO (ferrocene) has been taken equal to -4.8 eV below the vacuum level and EOX ½ (Fc/Fc^+) corresponds to the half-wave oxidation potential of the ferrocene internal standard.
The HOMO level could not be estimated directly from CV measurements because the 1st oxidation wave lies beyond the stability window of the two tested solvents (tetrahydrofuran and dichloromethane). The HOMO level is thus estimated from the LUMO level and optical energy gap (Eopt g): EHOMO = ELUMO -Eopt g , [formula] the optical energy gap being determined from the absorption onset in the UV-visible absorption spectrum.

HOMO [2] [eV] | LUMO [2] [eV] | Solubility in chlorobenzene [1] [wt%] | Solubility in toluene [1] | solubility for most organic solvents [1] | Structure (SMILES) | solubilities toward chlorobenzene and toluene [1] | Solubility in chlorobenzene ([1]; solvent chlorobenzene) [wt%] | Solubility in toluene ([1]; solvent toluene) [wt%]
-6.0 | -2.3 | < 1.5 | Not soluble | lacks solubility | CC(C)(C)c1ccc(-c2nnc(-c3cccc(-c4nnc(-c5ccc(C(C)(C)C)cc5)o4)c3)o2)cc1 [OXD7, reference compound] |  |  | 
-6.0 | -2.3 |  |  |  | CC(C)(C)c1ccc(-c2nnc(-c3cc(-c4nnc(-c5ccc(C(C)(C)C)cc5)o4)cc(C(C)(C)C)c3)o2)cc1 [tBu-OXD7] | good solubilities | > 7.2 | > 5

Structure (SMILES) | HOMO [2] [eV] | LUMO [2] [eV] | Solubility in chlorobenzene [1] [wt%] | Solubility in toluene [1] | solubility for most organic solvents [1] | solubilities toward chlorobenzene and toluene [1] | Solubility in chlorobenzene ([1]; solvent chlorobenzene) [wt%] | Solubility in toluene ([1]; solvent toluene) [wt%]
CC(C)(C)c1ccc(-c2nnc(-c3cc(-c4nnc(-c5ccc(C(C)(C)C)cc5)o4)cc(C(F)(F)C(F)(F)C(F)(F)C(F)(F)C(F)(F)C(F)(F)F)c3)o2)cc1 [Formula C6F13-OXD7] | -6.1 | -2.5 |  |  |  | good solubilities | > 4.5 | 2.5
